In patent US9969742B2, “Imidazotriazinone compounds” (Ironwood Pharmaceuticals, Inc., priority 2012, dated 2018):

The molecules below were run against T1, PDE9A2 (Homo sapiens, UniProt O76083) (assay: Phosphodiesterase enzyme screening assay, PDE9A2). Details: 4.0 μM cGMP substrate, 1 hour at R.T.; read-out: Band (PDE9A2 IC50).
T1 construct: purchased Reaction Biology Corporation, Malvern, Pa
Type: biochemical
From the text: Compounds of the invention were screened against PDE1A, PDE1B, PDE2A, PDE3A, PDE3B, PDE4A1A, PDE4B1, PDE4D3, PDE5A1, PDE6C, PDE7A, PDE8A1, PDE9A2, PDE10A2 AND PDE11A isoforms of the phosphodiesterase enzyme to determine activity and overall selectivity through comparative analysis. […] Where 8-methoxy-IBMX and Zaprinast were used as reference inhibitors.
The phosphodiesterase enzyme isoforms were obtained from a commercial retailer (Reaction Biology Corporation, Malvern, Pa.) for use in the instant screening assay.
The analysis was completed using the Caliper LabChip 3000 and a 12-sipper LabChip. LabChip assays are separations-based, meaning that the product and substrate are electrophoretically separated, thereby minimizing interferences and yielding the highest data quality available on any screening platform. […] High Z′ values, few false positives, few false negatives and analytical quality reproducibility are the reasons cited for the increasing reliance on the LabChip assays.
The off-chip incubation mobility-shift phosphodiesterase assay uses a microfluidic chip to measure the conversion of a fluorescent cyclic AMP substrate to a 5′-AMP product, or a cyclic GMP substrate to a 5′-GMP product. The reaction mixture, from a microtiter plate well, is introduced through a capillary sipper onto the chip, where the fluorescent substrate and product are separated by electrophoresis and detected via laser-induced fluorescence. […] The precision of microfluidics allows researchers to detect subtle interactions between drug candidates and therapeutic targets.
Reactions were carried out in 100 mM HEPES (pH 7.5), 5 mM MgCl2, 1 mM DTT, 0.003% Brij, 4.0 μM cGMP substrate. The reaction was started by addition of cGMP or cAMP and incubated for 1 hour at R.T. The reaction was terminated by the addition of stop buffer containing 100 mM HEPES (pH 7.5), 15 mM EDTA, 0.015% Brij-35, 5% DMSO. Cyclic AMP/GMP substrate and 5′-AMP/5′-GMP product were separated by charge using electrophoretic mobility shift. Product formed was compared to control wells to determine inhibition or enhancement of enzyme activity.
Data points were averages of quadruplicate wells and error bars represented the SEM for each point.

T1 sequence (O76083 1-533 isoform O76083-2): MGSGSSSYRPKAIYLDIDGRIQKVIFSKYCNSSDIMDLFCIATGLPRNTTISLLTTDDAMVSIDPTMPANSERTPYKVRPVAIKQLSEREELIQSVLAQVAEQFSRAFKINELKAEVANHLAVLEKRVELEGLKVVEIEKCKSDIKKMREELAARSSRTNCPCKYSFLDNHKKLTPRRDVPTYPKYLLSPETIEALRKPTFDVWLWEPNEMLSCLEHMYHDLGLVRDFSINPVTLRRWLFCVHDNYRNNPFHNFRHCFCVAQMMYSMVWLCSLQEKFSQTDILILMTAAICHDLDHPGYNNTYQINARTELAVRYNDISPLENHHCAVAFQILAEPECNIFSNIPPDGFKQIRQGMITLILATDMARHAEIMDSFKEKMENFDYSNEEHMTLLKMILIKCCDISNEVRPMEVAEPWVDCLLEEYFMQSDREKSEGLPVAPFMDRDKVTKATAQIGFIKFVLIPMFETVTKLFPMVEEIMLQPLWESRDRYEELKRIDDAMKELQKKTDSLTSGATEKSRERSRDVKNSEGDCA

| Compound | IC50 [nM] |
| --- | --- |
| CC1CN(Cc2ccccc2)CC1c1nn2c(-c3ccccc3C(F)(F)F)ncc2c(=O)[nH]1 (single isomer, unassigned; (+)) | < 1000 |
| CC1CN(Cc2nc3ccccn3n2)CC1c1nn2c(-c3ccccc3C(F)(F)F)ncc2c(=O)[nH]1 (single isomer, unassigned; (+)) [(+)-2-((3,4-trans)-1-([1,2,4]triazolo[1,5-a]pyridin-2-ylmethyl)-4-methylpyrrolidin-3-yl)-7-(2-(trifluoromethyl)phenyl)imidazo[5,1-f][1,2,4]triazin-4(3H)-one] | < 1000 |
| Cc1cnccc1-c1ncc2c(=O)[nH]c(C3CN(Cc4ccc(F)cc4)CC3C)nn12 (single isomer, unassigned; (+)) [(+)-2-((3,4-trans)-1-(4-fluorobenzyl)-4-methylpyrrolidin-3-yl)-7-(3-methylpyridin-4-yl) imidazo [5,1-f] [1,2,4] triazin-4 (3H)-one] | < 1000 |

Same assay, conditions: Table 1; 10 concentrations; 4.0 μM cGMP substrate; 1 hour at R.T.; read-out: Band (PDE9A2 IC50)

| Compound | IC50 [nM] |
| --- | --- |
| CC1CN(C(=O)c2cncnc2)CC1c1nn2c(C3CCOCC3)ncc2c(=O)[nH]1 (single isomer, unassigned; (-)) [(−)-2-((3,4-trans)-4-methyl-1-(pyrimidine-5-carbonyl)pyrrolidin-3-yl)-7-(tetrahydro-2H-pyran-4-yl)imidazo[5,1-f][1,2,4]triazin-4(3H)-one] | < 1000 |
| CC1CN(C(=O)c2ccccc2C#N)CC1c1nn2c(C3CCOCC3)ncc2c(=O)[nH]1 (single isomer, unassigned; (-)) [(−)-2-((3,4-trans)-3-methyl-4-(4-oxo-7-(tetrahydro-2H-pyran-4-yl)-3,4-dihydroimidazo[5,1-f][1,2,4]triazin-2-yl)pyrrolidine-1-carbonyl)benzonitrile] | < 1000 |
| CC1CN(S(=O)(=O)c2ccc(C#N)cc2)CC1c1nn2c(C3CCOCC3)ncc2c(=O)[nH]1 (single isomer, unassigned; (+)) [(+)-4-(((3,4-trans)-3-methyl-4-(4-oxo-7-(tetrahydro-2H-pyran-4-yl)-3,4-dihydroimidazo[5,1-f][1,2,4]triazin-2-yl)pyrrolidin-1-yl)sulfonyl)benzonitrile] | > 10000 |
| CC1CN(C(C)c2ccccc2)CC1c1nn2c(C3CCOCC3)ncc2c(=O)[nH]1 (single isomer, unassigned; (+)) [listing 1 of 2 here] | 1000 to 10000 |
| CC1CN(S(=O)(=O)c2ccccc2F)CC1c1nn2c(C3CCOCC3)ncc2c(=O)[nH]1 (single isomer, unassigned; (+)) [(+)-2-((3,4-trans)-1-((2-fluorophenyl)sulfonyl)-4-methylpyrrolidin-3-yl)-7-(tetrahydro-2H-pyran-4-yl)imidazo[5,1-f][1,2,4]triazin-4(3H)-one] | < 1000 |
| CC1CN(Cc2ccccc2)CC1c1nn2c(C3CCOCC3)ncc2c(=O)[nH]1 (single isomer, unassigned; (+)) [(+)-2-((3,4-trans)-1-benzyl-4-methylpyrrolidin-3-yl)-7-(tetrahydro-2H-pyran-4-yl)imidazo[1,5-f][1,2,4]triazin-4(3H)-one] | < 1000 |
| CC1CN(C(C)c2ccccc2)CC1c1nn2c(C3CCOCC3)ncc2c(=O)[nH]1 (single isomer, unassigned; (-)) | < 1000 |
| Cc1ccc(F)cc1-c1ncc2c(=O)[nH]c(C3CN(Cc4ncccn4)CC3C)nn12 (single isomer, unassigned; (-)) [(−)-7-(5-fluoro-2-methylphenyl)-2-((3,4-trans)-4-methyl-1-(pyrimidin-2-ylmethyl)pyrrolidin-3-yl)imidazo[1,5-f][1,2,4]triazin-4(3H)-one] | 1000 to 10000 |
| CC1CN(C(C)c2ccccc2)CC1c1nn2c(C3CCOCC3)ncc2c(=O)[nH]1 (single isomer, unassigned; (+)) [listing 2 of 2 here] | < 1000 |
| Cc1ccc(F)cc1-c1ncc2c(=O)[nH]c(C3CN(Cc4ncccn4)CC3C)nn12 (single isomer, unassigned; (+)) [(+)-7-(5-fluoro-2-methylphenyl)-2-((3,4-trans)-4-methyl-1-(pyrimidin-2-ylmethyl)pyrrolidin-3-yl)imidazo[1,5-f][1,2,4]triazin-4(3H)-one] | < 1000 |
| CC1CN(S(=O)(=O)c2cccc(F)c2)CC1c1nn2c(C3CCOCC3)ncc2c(=O)[nH]1 (single isomer, unassigned; (+)) [(+)-2-((3,4-trans)-1-((3-fluorophenyl)sulfonyl)-4-methylpyrrolidin-3-yl)-7-(tetrahydro-2H-pyran-4-yl)imidazo[5,1-f][1,2,4]triazin-4(3H)-one] | < 1000 |
| CC1CN(Cc2cccc(C#N)c2)CC1c1nn2c(C3CCOCC3)ncc2c(=O)[nH]1 (single isomer, unassigned; (-)) [(−)-3-(((3,4-trans)-3-methyl-4-(4-oxo-7-(tetrahydro-2H-pyran-4-yl)-3,4-dihydroimidazo[5,1-f][1,2,4]triazin-2-yl)pyrrolidin-1-yl)methyl)benzonitrile] | < 1000 |
| CC1CN(Cc2ccccc2)CC1c1nn2c(C3CCN(C)CC3)ncc2c(=O)[nH]1 (single isomer, unassigned) [2-((3,4-trans)-1-benzyl-4-methylpyrrolidin-3-yl)-7-(1-methylpiperidin-4-yl)imidazo[5,1-f][1,2,4]triazin-4(3H)-one] | 1000 to 10000 |
| CC1CN(S(=O)(=O)c2ccccc2C#N)CC1c1nn2c(C3CCOCC3)ncc2c(=O)[nH]1 (single isomer, unassigned; (+)) [(+)-2-(((3,4-trans)-3-methyl-4-(4-oxo-7-(tetrahydro-2H-pyran-4-yl)-3,4-dihydroimidazo[5,1-f][1,2,4]triazin-2-yl)pyrrolidin-1-yl)sulfonyl)benzonitrile] | 1000 to 10000 |
| CC1CN(C(=O)c2ccccc2C#N)CC1c1nn2c(C3CCOCC3)ncc2c(=O)[nH]1 (single isomer, unassigned; (+)) [(+)-2-((3,4-trans)-3-methyl-4-(4-oxo-7-(tetrahydro-2H-pyran-4-yl)-3,4-dihydroimidazo[5,1-f][1,2,4]triazin-2-yl)pyrrolidine-1-carbonyl)benzonitrile] | 1000 to 10000 |
| CCS(=O)(=O)N1CC(C)C(c2nn3c(C4CCOCC4)ncc3c(=O)[nH]2)C1 (single isomer, unassigned; (-)) [(−)-2-((3,4-trans)-1-(ethylsulfonyl)-4-methylpyrrolidin-3-yl)-7-(tetrahydro-2H-pyran-4-yl)imidazo[5,1-f][1,2,4]triazin-4(3H)-one] | < 1000 |

Same assay, conditions: Table 2; 10 concentrations; 4.0 μM cGMP substrate; 1 hour at R.T.; read-out: Band (PDE9A2 IC50)

| Compound | IC50 [nM] |
| --- | --- |
| CSc1cnc(CN2CC(C)C(c3nn4c(C5CCOCC5)ncc4c(=O)[nH]3)C2)nc1 (single isomer, unassigned; (+)) [(+)-2-((3,4-trans)-4-methyl-1-((5-(methylthio)pyrimidin-2-yl)methyl)pyrrolidin-3-yl)-7-(tetrahydro-2H-pyran-4-yl)imidazo[5,1-f][1,2,4]triazin-4(3H)-one] | < 1000 |
| CC1CN(Cc2nc(C(F)(F)F)cc(C(F)(F)F)n2)CC1c1nn2c(C3CCOCC3)ncc2c(=O)[nH]1 (single isomer, unassigned; (+)) [(+)-2-((3,4-trans)-1-((4,6-bis(trifluoromethyl)pyrimidin-2-yl)methyl)-4-methylpyrrolidin-3-yl)-7-(tetrahydro-2H-pyran-4-yl)imidazo[5,1-f][1,2,4]triazin-4(3H)-one] | < 1000 |

Same assay, conditions: read-out: Band (PDE9A2 IC50)

| Compound | IC50 [nM] |
| --- | --- |
| CC1CN(Cc2ccc(Cl)cc2)CC1c1nn2c(-c3cccc(F)c3)ncc2c(=O)[nH]1 (single isomer, unassigned; (+)) [(+)-2-((3,4-trans)-1-(4-chlorobenzyl)-4-methylpyrrolidin-3-yl)-7-(3-fluorophenyl)imidazo[5,1-f][1,2,4]triazin-4(3H)-one] | 1000 to 10000 |
| CC1CN(Cc2nc3ccccn3n2)CC1c1nn2c(-c3ccccc3)ncc2c(=O)[nH]1 (single isomer, unassigned; (+)) [(+)-2-((3,4-trans)-1-([1,2,4]triazolo[1,5-a]pyridin-2-ylmethyl)-4-methylpyrrolidin-3-yl)-7-phenylimidazo[5,1-f][1,2,4]triazin-4(3H)-one] | < 1000 |
| CC1CN(Cc2ncccn2)CC1c1nn2c(-c3ccccc3)ncc2c(=O)[nH]1 (single isomer, unassigned; (+)) [(+)-2-((3,4-trans)-4-methyl-1-(pyrimidin-2-ylmethyl)pyrrolidin-3-yl)-7-phenylimidazo[5,1-f][1,2,4]triazin-4(3H)-one] | < 1000 |
| CC1CN(Cc2nc3ccccc3[nH]2)CC1c1nn2c(-c3ccc(F)cc3)ncc2c(=O)[nH]1 (single isomer, unassigned; (+)) [(+)-2-((3,4-trans)-1-((1H-benzo[d]imidazol-2-yl)methyl)-4-methylpyrrolidin-3-yl)-7-(4-fluorophenyl)imidazo[5,1-f][1,2,4]triazin-4(3H)-one] | < 1000 |
